From patent US20240417410A1, “TRICYCLIC COMPOUNDS FOR THE TREATMENT OF CANCER” (Hoffmann-La Roche Inc., priority 2023, published 2024)

How the values were obtained:
KRAS G12C-BRAF complex = KRAS G12C-BRAF complex (Homo sapiens (Human), UniProt P01116+P62937, G12C); experiment: KRAS-BRAF with CYPA (500 nM) interaction assay (TR-FRET, Example 136); type: biochemical; details: KRAS G12C-BRAF disruption
Experimental: In this example, TR-FRET was also used to measure the compound or compound-CYPA dependent disruption of the KRAS G12C-BRAF complex. This protocol was also used to measure disruption of KRAS G12D or KRAS G12V binding to BRAF by a compound of the invention, respectively. In assay buffer containing 25 mM HEPES PH=7.4 (4-(2-hydroxyethyl)-1-piperazineethanesulfonic acid, Thermo, 15630080), 0.002% Tween20, 0.1% BSA, 100 mM NaCl, 5 mM MgCl2, 10 μM GMPPNP (Guanosine 5′-[β,γ-imido]triphosphate trisodium salt hydrate, Sigma, G0635), […] 384-well assay plate at final concentrations of 50 nM, 6.25 nM and 1 nM, respectively. Compound was present in plate wells as a 16-point 3-fold dilution series starting at a final concentration of 10 μM and incubated for 3 hours. A mixture of MAb Anti-6His-XL665 (Cisbio, 61HISXLB) and Mab anti-GST-TB cryptate (Cisbio, 61GSTTLB) was then added at a final concentration of 6.67 nM and 0.21 nM, respectively, and the plate was incubated for an additional 1.5 hours. TR-FRET signal was read on a PHERstar FSX microplate reader (Ex320 nm, Em 665/615 nm). Compounds that facilitate disruption of the KRAS-BRAF complex were identified as those eliciting a decrease in the TR-FRET ratio relative to DMSO control wells.

[1] = tested on: phosphorylation of ERK, KRAS G12D in AGS cells; experiment: pERK inhibition assay; type: cell-based; details: Homo sapiens, AGS, 4 h
Summary of the method: (§1)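 Cells in RPMI-1640 with 10% FBS were plated overnight (30,000/well H358, 20,000 AGS, 30,000 SW620) and treated 4 h with compounds at 0.5% DMSO. After formaldehyde fixation and methanol permeabilization, pERK was detected by in-cell ELISA with HRP secondary and TMB (OD450); IC50 from 4-parameter fit.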

[2] = tested on: phosphorylation of ERK, KRAS G12C in NCI-H358 cells; experiment: pERK inhibition assay; type: cell-based; details: Homo sapiens, NCI-H358, 4 h
Summary of the method: as §1

[3] = tested on: phosphorylation of ERK, KRAS G12V in SW620; experiment: pERK inhibition assay; type: cell-based; details: Homo sapiens, SW-620, 4 h, SW620 cells
Summary of the method: as §1

SW620 cells (KRAS G12V) = experiment: Cell viability assay (Cell Counting Kit-8, 3-day); type: cell-based, human; details: Homo sapiens, SW-620; SW620, 72 hrs incubation
Summary of the method: (§2)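 Cells seeded at 5,000/well (NCI-H358) or 2,000/well (AGS, SW620), treated next day at 0.5% final DMSO for 72 h. Viability read by CCK-8 (OD450 minus OD650) after 2 h; IC50 from 4-parameter sigmoidal fit.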

AGS cells (KRAS G12D) = experiment: Cell viability assay (Cell Counting Kit-8, 3-day); type: cell-based, human; details: Homo sapiens, 72 h, 72 hrs incubation
Summary of the method: as §2

[4] = tested on: NCI-H358 cells (KRAS G12C); experiment: Cell viability assay (Cell Counting Kit-8, 3-day); type: cell-based, human; details: Homo sapiens, NCI-H358, 72 h, NCI-H358, 72 hrs incubation
Summary of the method: as §2

Chain of KRAS G12C-BRAF complex (P01116-2 other isoform, or with tags, fused parts or gaps G12C): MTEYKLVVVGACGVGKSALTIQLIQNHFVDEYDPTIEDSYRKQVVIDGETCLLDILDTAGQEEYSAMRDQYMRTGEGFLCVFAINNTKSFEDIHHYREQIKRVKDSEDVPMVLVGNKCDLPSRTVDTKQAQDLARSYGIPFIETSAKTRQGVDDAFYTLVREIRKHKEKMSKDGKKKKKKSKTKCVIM
Chain of KRAS G12C-BRAF complex (P62937 whole entry): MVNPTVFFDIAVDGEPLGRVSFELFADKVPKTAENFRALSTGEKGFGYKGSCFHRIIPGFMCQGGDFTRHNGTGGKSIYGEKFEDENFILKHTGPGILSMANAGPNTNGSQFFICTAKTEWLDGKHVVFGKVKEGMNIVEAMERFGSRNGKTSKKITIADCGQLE

| SMILES | IC50 (KRAS G12C-BRAF complex) | IC50 [1] | IC50 [2] | IC50 [3] | IC50 (SW620 cells (KRAS G12V)) | IC50 (AGS cells (KRAS G12D)) | IC50 [4] |
| --- | --- | --- | --- | --- | --- | --- | --- |
| CO[C@@H](C)c1ncc(N2CCN(CC(F)(F)F)CC2)cc1-c1c2c3cc(cc4c3n1CCO4)-c1csc(n1)C[C@H](NC(=O)[C@H]1[C@@H]3COC[C@@H]31)C(=O)N1CCC[C@H](N1)C(=O)OCC(C)(C)C2 (atropisomer, axis not shown; (M)) [Example 12, (1S,5R,6r)-N-[(7S,13S)-(20M)-20-[2-[(1S)-1-methoxyethyl]-5-[4-(2,2,2-trifluoroethyl)piperazin-1-yl]-3-pyridyl]-17,17-dimethyl-8,14-dioxo-15,24-dioxa-4-thia-9,21,30,31-tetrazahexacyclo[23.3.1.1^2,5.1^9,13.0^19,27.0^21,26]hentriaconta-1 (28),2,5 (31),19,25 (29),26-hexaen-7-yl]-3-oxabicyclo[3.1.0]hexane-6-carboxamide] | 12 nM | 2.2 nM | 3.8 nM | 1.2 nM | 2 nM | 25 nM | 12.5 nM |
| CO[C@@H](C)c1ncc(N2CCN(CC(F)(F)F)CC2)cc1-c1c2c3cc(cc4c3n1CCC4)-c1csc(n1)C[C@H](NC(=O)[C@H]1[C@@H]3COC[C@@H]31)C(=O)N1CCC[C@H](N1)C(=O)OCC(C)(C)C2 (atropisomer, axis not shown; (M)) [Example 13, (1S,5R,6r)-N-[(7S,13S)-(20M)-20-[2-[(1S)-1-methoxyethyl]-5-[4-(2,2,2-trifluoroethyl)piperazin-1-yl]-3-pyridyl]-17,17-dimethyl-8,14-dioxo-15-oxa-4-thia-9,21,30,31-tetrazahexacyclo[23.3.1.1^2,5.1^9,13.0^19,27.0^21,26]hentriaconta-1 (28),2,5 (31),19,25 (29),26-hexaen-7-yl]-3-oxabicyclo[3.1.0]hexane-6-carboxamide] | 1.5 nM | 10.8 nM | 3 nM | 1.5 nM | 0.7 nM | 23 nM | 6.4 nM |
| CO[C@@H](C)c1ncc(N2CCN(C)CC2)cc1-c1c2c3cc(cc4c3n1CCC4)-c1csc(n1)C[C@H](NC(=O)[C@H]1C[C@@H]1C(F)F)C(=O)N1CCC[C@H](N1)C(=O)OCC(C)(C)C2 (atropisomer, axis not shown; (M)) [Example 14, (1S,2S)-2-(difluoromethyl)-N-[(7S,13S)-(20M)-20-[2-[(1S)-1-methoxyethyl]-5-(4-methylpiperazin-1-yl)-3-pyridyl]-17,17-dimethyl-8,14-dioxo-15-oxa-4-thia-9,21,30,31-tetrazahexacyclo[23.3.1.1^2,5.1^9,13.0^19,27.0^21,26]hentriaconta-1 (28),2,5 (31),19,25 (29),26-hexaen-7-yl]cyclopropanecarboxamide] | 22.2 nM | 5.6 nM | 0.8 nM | 0.7 nM | 1 nM | 17.5 nM | 3.6 nM |
| CO[C@@H](C)c1ncc(N2CCN(C)CC2)cc1-c1c2c3cc(cc4c3n1CCC4)-c1csc(n1)C[C@H](NC(=O)[C@H]1[C@@H]3COC[C@@H]31)C(=O)N1CCC[C@H](N1)C(=O)OCC(C)(C)C2 (atropisomer, axis not shown; (M)) [Example 15, (1S,5R,6r)-N-[(7S,13S)-(20M)-20-[2-[(1S)-1-methoxyethyl]-5-(4-methylpiperazin-1-yl)-3-pyridyl]-17,17-dimethyl-8,14-dioxo-15-oxa-4-thia-9,21,30,31-tetrazahexacyclo[23.3.1.1^2,5.1^9,13.0^19,27.0^21,26]hentriaconta-1 (28),2,5 (31), 19,25 (29),26-hexaen-7-yl]-3-oxabicyclo[3.1.0]hexane-6-carboxamide] | 11.9 nM | 5.2 nM | 0.7 nM | 0.8 nM | 1.2 nM | 15.9 nM | 6.6 nM |
